# ChEMBL document CHEMBL5143508, “Design, synthesis and biological evaluation of novel o-aminobenzamide derivatives as potential anti-gastric cancer agents in vitro and in vivo” (Eur J Med Chem, 2022)
# Several values for one entry are separate records, joined by “and”; a condition that tells them apart may be missing. Identical values can stand only once. Activity calls are given as the source filed them. No cut-off for these calls is given here.
# Legend:
# HGC-27 [1] = assay: Induction of cell cycle arrest in human HGC-27 cells assessed as upregulation of p27 expression at 0.5 to 8 uM incubated for 48 hrs by Western blot analysis; assay type: functional, cell-based; settings: dose 0.5-8 µM
# HGC-27 [2] = assay: Induction of apoptosis in human HGC-27 cells assessed as late apoptotic cells at 8 uM incubated for 48 hrs by annexin V FITC/propidium iodide staining based flow cytometry (reference value: 5.14 %); assay type: functional
# HGC-27 [3] = assay: Induction of cell cycle arrest in human HGC-27 cells assessed as reduction in accumulation of cells at G2/M phase at 0.5 to 8 uM incubated for 24 hrs by PI staining based flow cytometry analysis; assay type: functional; settings: dose 0.5-8 µM
# HGC-27 [4] = assay: Induction of apoptosis in human HGC-27 cells assessed as viable cells at 0.5 uM incubated for 48 hrs by annexin V FITC/propidium iodide staining based flow cytometry (reference value: 93.0 %); assay type: functional; settings: read-out: Activity
# MGC-803 [5] = assay: Induction of apoptosis in human MGC-803 cells assessed as late apoptotic cells at 2.5 uM incubated for 48 hrs by annexin V FITC/propidium iodide staining based flow cytometry (reference value: 4.07 %); assay type: functional
# HGC-27 [6] = assay: Induction of apoptosis in human HGC-27 cells assessed as upregulation in Bax expression at 0.5 to 8 uM incubated for 48 hrs by Western blot analysis; assay type: functional, cell-based; settings: dose 0.5-8 µM
# HGC-27 [7] = assay: Induction of cell cycle arrest in human HGC-27 cells assessed as reduction in accumulation of cells at S phase at 0.5 to 8 uM incubated for 24 hrs by PI staining based flow cytometry analysis; assay type: functional; settings: dose 0.5-8 µM
# MGC-803 [8] = assay: Induction of cell cycle arrest in human MGC-803 cells assessed as reduction in accumulation of cells at G0/G1 phase at 2.5 to 10 uM incubated for 24 hrs by PI staining based flow cytometry analysis; assay type: functional; settings: dose 2.5-10 µM
# HGC-27 [9] = assay: Induction of apoptosis in human HGC-27 cells assessed as necrotic cells at 8 uM incubated for 48 hrs by annexin V FITC/propidium iodide staining based flow cytometry (reference value: 1.24 %); assay type: functional
# HGC-27 [10] = assay: Induction of apoptosis in human HGC-27 cells assessed as necrotic cells at 0.5 uM incubated for 48 hrs by annexin V FITC/propidium iodide staining based flow cytometry (reference value: 1.24 %); assay type: functional
# [11] = Acute toxicity in Kunming mouse assessed as effect on kidney pathology at 1000 mg/kg, po measured after 14 days; assay type: organism-based; settings: in vivo, 336 h, time 14 day
# [12] = Toxicity in BALB/c mouse xenografted with human HGC-27 cells assessed as granulocyte level at 75 mg/kg, po bid for 19 days; assay type: organism-based; settings: in vivo, 456 h, time 19 day
# MGC-803 [13] = assay: Induction of apoptosis in human MGC-803 cells assessed as late apoptotic cells at 20 uM incubated for 48 hrs by annexin V FITC/propidium iodide staining based flow cytometry (reference value: 4.07 %); assay type: functional
# [14] = Toxicity in BALB/c mouse xenografted with human HGC-27 cells assessed as RBC level at 75 mg/kg, po bid for 19 days; assay type: organism-based, Erythrocyte; settings: in vivo, 456 h, time 19 day
# HGC-27 [15] = assay: Induction of apoptosis in human HGC-27 cells assessed as upregulation in cleaved caspase-3 expression at 0.1 to 1.6 uM incubated for 48 hrs by Western blot analysis; assay type: functional, cell-based; settings: dose 0.1-1.6 µM
# HGC-27 [16] = assay: In vivo induction of cell cycle arrest in human HGC-27 cells xenografted in BALB/c mouse assessed as decrease in CDK2 expression at 75 to 150 mg/kg, po bid administered for 19 days and measured by immunohistochemical analysis; assay type: functional, organism-based; settings: dose 75-150 mg/kg, time 19.0 day
# AGS = assay: cells; assay type: functional, cell-based; settings: Homo sapiens, 72 h
# Description: Cytotoxicity against human AGS cells assessed as inhibition of cell growth incubated for 72 hrs by MTT assay
# HGC-27 [17] = assay: Induction of apoptosis in human HGC-27 cells assessed as late apoptotic cells at 0.4 uM incubated for 48 hrs by annexin V FITC/propidium iodide staining based flow cytometry (reference value: 5.14 %); assay type: functional
# [18] = Toxicity in BALB/c mouse xenografted with human HGC-27 cells assessed as platelet distribution width at 75 mg/kg, po bid for 19 days; assay type: organism-based; settings: in vivo, 456 h, time 19 day
# [19] = Toxicity in BALB/c mouse xenografted with human HGC-27 cells assessed as body weight loss at 75 to 150 mg/kg, po bid administered for 19 days and measured every other day; assay type: organism-based; settings: in vivo, 456 h, dose 75-150 mg/kg, time 19 day
# HGC-27 [20] = assay: In vivo induction of apoptosis in human HGC-27 cells xenografted in BALB/c mouse assessed as increase in cleaved caspase-3 expression at 75 to 150 mg/kg , po bid administered for 19 days and measured by immunohistochemical analysis; assay type: functional, organism-based; settings: dose 75-150 mg/kg, time 19.0 day
# MGC-803 [21] = assay: Induction of apoptosis in human MGC-803 cells assessed as necrotic cells at 20 uM incubated for 48 hrs by annexin V FITC/propidium iodide staining based flow cytometry (reference value: 1.06 %); assay type: functional
# [22] = Toxicity in BALB/c mouse xenografted with human HGC-27 cells assessed as hematocrit level at 75 mg/kg, po bid for 19 days; assay type: organism-based; settings: in vivo, 456 h, time 19 day
# HGC-27 [23] = assay: Induction of cell cycle arrest in human HGC-27 cells assessed as reduction in accumulation of cells at G0/G1 phase at 0.1 to 1.6 uM incubated for 24 hrs by PI staining based flow cytometry analysis; assay type: functional; settings: dose 0.1-1.6 µM
# [24] = Acute toxicity in Kunming mouse assessed as mouse survival at 1000 mg/kg, po measured after 14 days; assay type: organism-based; settings: in vivo, 336 h, time 14 day
# MGC-803 [25] = assay: Induction of apoptosis in human MGC-803 cells assessed as viable cells at 20 uM incubated for 48 hrs by annexin V FITC/propidium iodide staining based flow cytometry (reference value: 94.4 %); assay type: functional; settings: read-out: Activity
# BGC-823 = assay: cells; assay type: functional, cell-based; settings: Homo sapiens, BGC-823, 72 h
# Description: Cytotoxicity against human BGC-823 cells assessed as inhibition of cell growth incubated for 72 hrs by MTT assay
# HGC-27 [26] = assay: Induction of cell cycle arrest in human HGC-27 cells assessed as reduction in accumulation of cells at S phase at 0.1 to 1.6 uM incubated for 24 hrs by PI staining based flow cytometry analysis; assay type: functional; settings: dose 0.1-1.6 µM
# [27] = Toxicity in BALB/c mouse xenografted with human HGC-27 cells assessed as red blood cell distribution width at 150 mg/kg, po bid for 19 days; assay type: organism-based; settings: in vivo, 456 h, time 19 day
# [28] = Toxicity in BALB/c mouse xenografted with human HGC-27 cells assessed as granulocyte level at 150 mg/kg, po bid for 19 days; assay type: organism-based; settings: in vivo, 456 h, time 19 day
# HGC-27 [29] = assay: Induction of cell cycle arrest in human HGC-27 cells assessed as upregulation of p27 expression at 0.1 to 1.6 uM incubated for 48 hrs by Western blot analysis; assay type: functional, cell-based; settings: dose 0.1-1.6 µM
# in vitro = settings: human, GES1 cells
# Description: Cytotoxicity against human GES1 cells assessed as inhibition of cell growth incubated for 72 hrs by MTT assay
# HGC-27 [30] = assay: Induction of cell cycle arrest in human HGC-27 cells assessed as upregulation of p21 expression at 0.1 to 1.6 uM incubated for 48 hrs by Western blot analysis; assay type: functional, cell-based; settings: dose 0.1-1.6 µM
# [31] = Toxicity in BALB/c mouse xenografted with human HGC-27 cells assessed as monocyte level at 150 mg/kg, po bid for 19 days; assay type: organism-based; settings: in vivo, 456 h, time 19 day
# [32] = Toxicity in BALB/c mouse xenografted with human HGC-27 cells assessed as mean corpuscular volume at 75 mg/kg, po bid for 19 days; assay type: organism-based; settings: in vivo, 456 h, time 19 day
smiles,measurement,setting,value
O=C(NCc1ccc(NC(=O)c2ccccc2N2CCCC2)cc1)OCc1cccnc1,Activity,HGC-27 [1],Active
same,Activity,HGC-27 [2],49.1%
same,Activity,HGC-27 [3],Active
same,viability at 0.5 µM,HGC-27 [4],79.1%
same,Activity,MGC-803 [5],14.6%
same,Activity,HGC-27 [6],Active
same,Activity,HGC-27 [7],Active
same,Activity,MGC-803 [8],Active
same,Activity,HGC-27 [9],11.1%
same,Activity,HGC-27 [10],2.55%
O=C(NCc1ccc(NC(=O)c2cc(F)ccc2N2CCCC2)cc1)OCc1cccnc1,Activity,[11],Non-Toxic
same,Activity,[12],91.4%
same,Activity,MGC-803 [13],19.8%
same,Activity,[14],11.74 10^12/L
same,Activity,HGC-27 [15],Active
same,Activity,HGC-27 [16],Active
same,IC50,AGS,23.3 µM
same,Activity,HGC-27 [17],21.3%
same,Activity,[18],16.93
same,Activity,[19],Non-Toxic
same,Activity,HGC-27 [20],Active
same,Activity,MGC-803 [21],2.74%
same,Activity,[22],58.3%
same,Activity,HGC-27 [23],Active
same,Activity,[24],Non-Toxic
same,viability at 20 µM,MGC-803 [25],60.7%
same,IC50,BGC-823,14.8 µM
same,Activity,HGC-27 [26],Active
same,Activity,[27],15.33%
same,Activity,[28],72.9 10^9/L and 90.67%
same,Activity,HGC-27 [29],Active
same,IC50 at 72 h,in vitro,90.2 µM
same,Activity,HGC-27 [30],Active
same,Activity,[31],1.7 10^9/L and 2.13%
same,Activity,[32],49.83 fL
